Reference: patent US11759518B2, “Medicine for treating cancer by administering a toll-like receptor agonist and LAG-3 IgG fusion protein” (NEC CORPORATION, priority 2016, dated 2023)

Key:
P815 tumor cells = test: Suppression of tumor growth by immunoadjuvant combination, P815 model; type: in vivo, mouse; conditions: DBA/2 mice with P815 tumor, PIA CTL i.v. Day 7
Source text: The following substances were used as adjuvants.
Poly I:C (TLR3 agonist) (Invivogen, SanDiego, USA)
RIBOXXOL (TLR3 agonist) (Riboxx, Radebeul, Germany)
MPL (TLR4 agonist) (Invivogen, SanDiego, USA)
Imiquimod (TLR7/8 agonist) (Invivogen, SanDiego, USA)
CpG (TLR9 agonist) (Invivogen, SanDiego, USA)
LAG-3Ig (Adipogen, SanDiego, USA)
P815 tumor cells were subcutaneously inoculated to DBA/2 mice in an amount of 5×10^5 cells per mouse to prepare cancer model mice. The day of inoculation was specified as Day 0. On Day 7, PIA CTL (2.5×10^5 cells per mouse) were intravenously injected. Day 8 and Day 15, an admixture of PIA peptide (50 μg per mouse) and an adjuvant in PBS was subcutaneously injected. Mice were divided into 9 groups each consisting of 4 or 5 mice and the following adjuvants were used respectively.
Group 1: PIA peptide alone (control)
(§1) Group 2: Poly I:C (50 μg/mouse)
Group 3: Poly I:C (50 μg/mouse)+LAG-3Ig (1 μg/mouse)
Group 4: No PIA peptide, Poly I:C (50 μg/mouse)+LAG-3Ig (1 μg/mouse) alone
Group 5: RIBOXXOL (100 μg/mouse) Group 6: RIBOXXOL (100 μg/mouse)+LAG-3Ig (1 μg/mouse)
Group 7: MPL (10 μg/mouse)+LAG-3Ig (1 μg/mouse) Group 8: Imiquimod (50 μg/mouse)+LAG-3Ig (1 μg/mouse)
Group 9: CpG (10 μg/mouse)+LAG-3Ig (1 μg/mouse)

[1] = system: P815 cells (DBA/2mouse-derived mouse mastocytoma); test: Comparison of adjuvants in a cancer vaccine with PIA peptide, tumor size and survival; type: in vivo; conditions: DBA/2 mice with P815 tumor, 5 mice per group; PIA CTL i.v. Day 8; adjuvant admixed with PIA peptide 50 μg per mouse s.c. Day 9 and Day 16
Source text: In accordance with the protocol shown in FIG. 1, the effects of adjuvants in cancer vaccines using a cancer-antigen derived peptide were compared.
As cancer model mice, DBA/2 mice, to which P815 cells (DBA/2mouse-derived mouse mastocytoma) were grafted, were put in use.
As a cancer-antigen derived peptide, a peptide (hereinafter referred to as “PIA peptide”) consisting of a partial sequence of PIA protein was used, which is a tumor antigen of P815 tumor and known to be restrictively presented by an MHC H-2Ld. The amino acid sequence of PIA peptide are represented by LPYLGWLVF (SEQ. ID No: 40).
As PIA CTL, a T cell expressing a T cell receptor and recognizing PIA peptide was used. […] Based on the positive ratio, the number of PIA-CTL cells was determined and administered.
As the adjuvants, the following substances were used.
P815 tumor cells were subcutaneously inoculated to DBA/2 mice in an amount of 5×10^5 cells per mouse. The day of inoculation was specified as Day 0. On Day 8, PIA CTL (2.5×10^5 cells per mouse) were intravenously injected. On Day 9 and Day 16, an admixture of PIA peptide (50 μg per mouse) and an adjuvant in PBS was subcutaneously injected. Mice were divided into 9 groups each consisting of 5 mice and the following adjuvants were used, respectively.
Group 2: IFA (50 μL/mouse)
Group 3: PT (1×10^8/mouse)
Group 4: Poly I:C (50 μg/mouse) […]

B16-F10 melanoma cells = test: Tumor growth inhibitory effect of immuno-adjuvant combination in B16-F10 melanoma inoculation model mice; type: in vivo, mouse; conditions: C57BL/6 mice with B16-F10 melanoma
Experimental: To C57BL/6 mice, B16-F10 melanoma cells (1×10^5 cells per mouse) were subcutaneously inoculated to prepare cancer model mice. The day of inoculation was specified as Day 0. On Day 5 and Day 12, twice in total, an admixture of gp100 peptide (50 μg per mouse) and an adjuvant in PBS was subcutaneously injected. The following adjuvants were used in respective mice groups.
Group 1: IFA (50 μL/mouse)
as §1
Group 3: LAG-3Ig (1 μg/mouse)
Group 4: LAG-3Ig (1 μg/mouse)+Poly I:C (50 μg/mouse)

Substance | mice died up to Day 40 (P815 tumor cells; s.c. injection Day 8 and Day 15) | number of mice survived until Day 70 without increasing tumor size [1] | effect of extending survival time (B16-F10 melanoma cells; Groups 2 and 3 compared to Group 1 (IFA), Group 4 compared to Groups 1, 2 and 3) | day on which five mice all died (B16-F10 melanoma cells; adjuvant admixed with gp100 peptide 50 μg s.c. Day 5 and Day 12) [days] | mice survived (P815 tumor cells; read against Day 40 of the preceding sentence, adjuvant admixed with PIA peptide (unless stated) s.c. Day 8 and Day 15)
LPYLGWLVF [PIA peptide alone] | 5 out of 5 | – | – | – | –
Polyinosinic:polycytidylic acid [Poly I:C] | – | 1 | a significant effect of extending survival time was not observed | 35 | Four out of 5
